Test system: full thickness human skin homogenate
Assay: In vitro NO generation by NO specific Clarke-type electrode, UVA-irradiated skin homogenate
Type: biochemical
Conditions: UVA radiation, nitrite source
Text: Electrochemical sensors are widely used for the measurement of NO generation and Clark-type electrodes are most widely used as they are commercially available and easy to handle. The principle of these sensors is that NO diffuses through a gas-permeable membrane and a thin film of electrolyte, followed by oxidation on the working electrode. This oxidation creates a current that is proportional to the concentration of NO outside the membrane. The advantage of electrochemical NO sensors is the ability to directly detect NO concentration in solution or in biological samples with a low nanomolar detection limit. This makes NO electrodes an excellent tool for studying NO generation especially in biological samples.
We used the Clarke electrode technique to investigate the mechanism of UVA light dependent NO generation in skin and cosmetically acceptable components which could facilitate augment the endogenous process.
A 10% (g/mL) full thickness human skin homogenate in phosphate buffer was prepared using a glass/glass homogenizer. The homogenate was preheated at 56° C. for 1 hour to inactivate enzymatic generation of NO.
200 ul of homogenate was placed in a quartz cuvette in a thermostatically controlled environment and irradiated with broadband (320-400 nm) UVA radiation. Baseline signals were recorded. […]

SMILES	sustained UV induced NO generation from nitrite
N[C@@H](CSSC[C@H](N)C(=O)O)C(=O)O [Cystine]	able to participate in sustained NO generation
O=C(O)CCCCC1CCSS1 (centres unmarked) [Lipoic acid (Oxidised), Lipoic acid]	able to participate in sustained NO generation

Source: US11951202B2, “Compounds and compositions for use” (DR WELLER LIMITED, priority 2016, dated 2024)
